Experimental findings from ChEMBL document CHEMBL1201862, “PubChem BioAssay data set” (2004) are described below.

Common to all, as to experiment: inhibition of tumour cell growth, NCI panel, 48 h
Assay [1] concerns HCT-15.
Assay [2] has as its system 786-0.
Assay [3] has as its system RPMI-8226.
Assay [4] relates to SF-268.
Assay [5] deals with OVCAR-5.
Assay [6] has as its system LXFL 529.
Assay [7] concerns LOX IMVI.
Assay [8] has as its system M14.
Assay [9] has as its system OVCAR-4.
For assay [10], the system named is OVCAR-8.
Assay [11] relates to U-251.
Assay [12] deals with NCI-H460.
In assay [13] the test system is K562.
The subject of assay [14] is COLO 205.
Assay [15] relates to HOP-62.
Assay [16] concerns UACC-62.
In assay [17] the test system is BT-549.
Assay [18] relates to NCI/ADR-RES.
For assay [19], the system named is Hs-578T.
Assay [20] deals with DU-145.

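Grown in 96-well plates, cells were treated for 48 hours with each compound at five concentrations. Insufficient inhibition: endpoint recorded as highest concentration tested. At the GI50, growth is halved.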 Activity calls are given as the source filed them. No stated cut-off is given here; in the data, active = GI50 up to about 1.1 µM and inactive = higher.

On to `COc1cc(O)c(C(=O)C2Cc3ccccc32)c(OC)c1` (centres undefined), for which the GI50 in assay [1] is 32.9 µM; in assay [2], 44.2 µM (inactive); in assay [3], 16.8 µM (inactive); in assay [4], 67.8 µM (inactive); in assay [5], 35.7 µM (inactive); in assay [6] it was 34 µM (inactive). For the same molecule, the GI50 in assay [7] is 51.4 µM (inactive); in assay [8] it was 33.9 µM (inactive); in assay [9], 64.4 µM (inactive); in assay [10], 48.3 µM (inactive); in assay [11] it was 64.3 µM (inactive); in [12] it was 61.8 µM (inactive). Besides, the GI50 in assay [13] was 32.7 µM (inactive); in [14], > 100 µM (inactive); in assay [15], > 100 µM (inactive); in assay [16] it was 57.5 µM (inactive).

For `CCN(CCO)CCNc1ccc(C)c2sc3ccccc3c(=O)c12`, the GI50 in assay [1] is 4.15 µM; in assay [2], 2.96 µM (inactive); in assay [3], 4.28 µM (inactive); in [4], 6.85 µM (inactive); in assay [5], 5.15 µM (inactive); in [17], 13.4 µM (inactive). The GI50 in assay [18] is 3.07 µM (inactive); in assay [6], 2.77 µM (inactive); in [7] it was 2.24 µM (inactive); in [8], 1.78 µM (inactive); in [9] it was 7.8 µM (inactive); in [19] it was 2.25 µM (inactive). For the same molecule, the GI50 in assay [20] is 10.2 µM (inactive); in [10] it was 4.06 µM (inactive); in [11] it was 3.69 µM (inactive); in assay [12], 1.73 µM (inactive); in [13], 4.31 µM (inactive); in assay [14], 1.63 µM (inactive). The GI50 in [15] is 3.97 µM (inactive); in assay [16] it was 1.76 µM (inactive).

In the case of `Cn1sc2ccccc2c1=S`, the GI50 was 5.5 µM in assay [1]; 3.85 µM (inactive) in [2]; 6.73 µM (inactive) in assay [3]; 3.5 µM (inactive) in assay [4]; 20 µM (inactive) in assay [5]; 3.21 µM (inactive) in [18]. Moreover, the GI50 in assay [6] was 14 µM (inactive); in assay [7], 1.78 µM (inactive); in [8], 10.4 µM (inactive); in [9] it was 8.2 µM (inactive); in assay [10], 9.71 µM (inactive); in assay [11], 4.01 µM (inactive). Moreover, the GI50 in [12] was 13.8 µM (inactive); in assay [13], 3.71 µM (inactive); in assay [14] it was 13.3 µM (inactive); in assay [15], 16.5 µM (inactive); in assay [16], 5.78 µM (inactive).

`Cc1cc(=O)oc2c(C3=NN(C=O)C(c4ccccc4)C3)c(O)ccc12` (centres undefined): the GI50 is above 78.5 µM in assay [1]; 26.1 µM (inactive) in assay [2]; > 79.3 µM (inactive) in assay [3]; 31.6 µM (inactive) in assay [4]; > 87.7 µM (inactive) in assay [5]; 65.6 µM (inactive) in assay [17]. The GI50 in [18] was 61.9 µM (inactive); in [6], > 100 µM (inactive); in [7], > 72.4 µM (inactive); in [8], 51.9 µM (inactive); in assay [9] it was > 64.1 µM (inactive); in assay [19] it was 31.2 µM (inactive). Moreover, the GI50 in assay [20] was > 100 µM (inactive); in [10], 71.1 µM (inactive); in assay [11] it was 32.7 µM (inactive); in [12] it was 73.3 µM (inactive); in assay [13], > 91 µM (inactive); in assay [14], > 71.8 µM (inactive). Besides, the GI50 in assay [15] is 37.1 µM (inactive); in [16] it was 82.2 µM (inactive).

As for `CCN(CC)C1CC(O[C@H]2C[C@](O)(C(=O)CO)Cc3c(O)c4c(c(O)c32)C(=O)c2c(OC)cccc2C4=O)OC(C)C1O` (some centres undefined), the GI50 was 0.245 µM in [1]; 0.0588 µM (active) in assay [2]; 0.0513 µM (active) in assay [3]; 0.047 µM (active) in [4]; 0.12 µM (active) in assay [5]; 0.0458 µM (active) in assay [6]. The GI50 in assay [7] was < 0.0259 µM (active); in assay [8], 0.0982 µM (active); in assay [9], 0.0546 µM (active); in assay [10], < 0.0262 µM (active); in assay [11], 0.0509 µM (active); in assay [12], < 0.019 µM (active). Besides, the GI50 in assay [13] is 0.0264 µM (active); in [14], 0.0387 µM (active); in assay [15], 0.0887 µM (active); in [16] it was 0.0431 µM (active).

`O=c1[nH]c(=O)n(C2OC(CO)C(O)C2O)cc1/N=N/NCc1ccccc1` (centres undefined): the GI50 in assay [1] was above 65 µM; in assay [2], > 100 µM (inactive); in assay [3], > 59.6 µM (inactive); in [4] it was > 100 µM (inactive); in [5], > 100 µM (inactive); in assay [6], 98.2 µM (inactive). In addition, the GI50 is > 63.8 µM (inactive) in [7]; > 100 µM (inactive) in assay [8]; > 100 µM (inactive) in [9]; > 100 µM (inactive) in assay [10]; > 100 µM (inactive) in assay [11]; > 69.2 µM (inactive) in [12]. Also, the GI50 is > 71.9 µM (inactive) in assay [13], > 69.2 µM (inactive) in [14], > 100 µM (inactive) in [15] and > 100 µM (inactive) in [16].

As to `O=C1OC(CC(=O)c2ccc(Cl)c(Cl)c2)C(Cl)=C1Cl` (centres undefined), the GI50 in [1] is above 100 µM; in [2], > 100 µM (inactive); in [3] it was > 100 µM (inactive); in assay [4], > 100 µM (inactive); in assay [5], > 100 µM (inactive); in assay [6], 58.6 µM (inactive). In addition, the GI50 in assay [7], in [8], in [9], in assay [10], in assay [11] and in assay [12] was > 100 µM (inactive) in each case. The GI50 was 38.8 µM (inactive) in assay [13], > 100 µM (inactive) in assay [14], > 100 µM (inactive) in assay [15] and > 100 µM (inactive) in assay [16].

For `CCOC(=O)C(C)Sc1nnc(COc2ccccc2OC)n1-c1ccccc1` (centres undefined), the GI50 in [1] was 16.9 µM; in assay [2], > 100 µM (inactive); in [3], 23.9 µM (inactive); in assay [4] it was > 100 µM (inactive); in [5], > 100 µM (inactive); in assay [6] it was 28.8 µM (inactive). Besides, the GI50 in [7] is 15.7 µM (inactive); in assay [8], > 100 µM (inactive); in assay [9], > 100 µM (inactive); in assay [10], > 100 µM (inactive); in assay [11], > 100 µM (inactive); in assay [12], 18.3 µM (inactive). In addition, the GI50 was 30.1 µM (inactive) in [13], > 100 µM (inactive) in assay [14], > 100 µM (inactive) in [15] and > 100 µM (inactive) in assay [16].

On to `COc1ccc(C(=O)c2c(C(C(=O)c3ccc(OC)cc3)C(=O)c3ccc(OC)cc3)n(C(=O)c3ccc(OC)cc3)c3ccccc23)cc1`, for which the GI50 in assay [1] was above 100 µM; in [2], > 100 µM (inactive); in assay [3] it was > 100 µM (inactive); in assay [4], > 100 µM (inactive); in assay [5], > 100 µM (inactive); in [6], > 100 µM (inactive). Besides, the GI50 in assay [7], in assay [8], in assay [9], in assay [10], in assay [11] and in assay [12] was > 100 µM (inactive) in each case. Further, the GI50 in assay [13], in assay [14], in [15] and in [16] was > 100 µM (inactive) each time.

For `[O-][S+](Cc1cc2c(cc1Br)OCO2)c1ccccc1` (centres undefined), the GI50 in assay [1] is 34.4 µM; in [2], 39.1 µM (inactive); in [3], 24.8 µM (inactive); in assay [4] it was 59.2 µM (inactive); in assay [5], > 100 µM (inactive); in [6] it was 44 µM (inactive). The GI50 in assay [7] is 15.7 µM (inactive); in [8], 48.2 µM (inactive); in assay [9], 67.6 µM (inactive); in assay [10], 41.4 µM (inactive); in assay [11], 30.3 µM (inactive); in assay [12], 41.4 µM (inactive). In addition, the GI50 in assay [13] was 27.5 µM (inactive); in assay [14], 34.2 µM (inactive); in assay [15], > 100 µM (inactive); in assay [16] it was 33.4 µM (inactive).
